According to ChEMBL document CHEMBL1201862, “PubChem BioAssay data set” (2004):
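Where inhibition never reached the appropriate level, the endpoint shown equals the highest concentration tested. Otherwise, values were interpolated linearly from a five-concentration, 48-hour dose response in 96-well plates. GI50 marks 50% less growth.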 Calls of active or inactive are those of the source. No stated cut-off is given here; in the data, active = GI50 up to about 1.1 µM and inactive = higher.

Key:
Test in all cases: DTP human tumour cell line panel, 48 h
HOP-62 = tested on: HOP-62
Hs-578T = tested on: Hs-578T
EKVX = tested on: EKVX
CCRF-CEM = tested on: CCRF-CEM
HCT-15 = tested on: HCT-15
SK-MEL-5 = tested on: SK-MEL-5
SR = tested on: SR
A549 = tested on: A549
NCI/ADR-RES = tested on: NCI/ADR-RES
OVCAR-3 = tested on: OVCAR-3
UACC-62 = tested on: UACC-62
HL-60 = tested on: HL-60
MDA-MB-435 = tested on: MDA-MB-435
SN12C = tested on: SN12C
Malme-3M = tested on: Malme-3M
HT-29 = tested on: HT-29
RPMI-8226 = tested on: RPMI-8226
U-251 = tested on: U-251
M14 = tested on: M14
SF-539 = tested on: SF-539

Row | Structure (SMILES) | GI50 (HOP-62) | GI50 (Hs-578T) | GI50 (EKVX) | GI50 (CCRF-CEM) | GI50 (HCT-15) [µM] | GI50 (SK-MEL-5) | GI50 (SR) | GI50 (A549) | GI50 (NCI/ADR-RES) | GI50 (OVCAR-3) | GI50 (UACC-62) | GI50 (HL-60) | GI50 (MDA-MB-435) | GI50 (SN12C) | GI50 (Malme-3M) | GI50 (HT-29) | GI50 (RPMI-8226) | GI50 (U-251) | GI50 (M14) | GI50 (SF-539)
1 | CN(C)CC(CN(C)C)c1ccccn1 | > 100 µM (inactive) | > 100 µM (inactive) | > 100 µM (inactive) | > 100 µM (inactive) | > 100 | > 100 µM (inactive) | > 100 µM (inactive) | > 100 µM (inactive) | > 100 µM (inactive) | > 100 µM (inactive) | > 100 µM (inactive) | > 100 µM (inactive) | > 100 µM (inactive) | > 100 µM (inactive) | > 100 µM (inactive) | > 100 µM (inactive) | > 100 µM (inactive) | > 100 µM (inactive) | > 100 µM (inactive) | > 100 µM (inactive)
2 | CCC(/C=C/c1ccccc1)=N\NC(=S)N/N=C(/C=C/c1ccccc1)CC | > 100 µM (inactive) | > 100 µM (inactive) | > 100 µM (inactive) | 7.55 µM (inactive) | 26.5 | 23 µM (inactive) | 16.9 µM (inactive) | 17.2 µM (inactive) | 29.6 µM (inactive) | 22.9 µM (inactive) | 54.8 µM (inactive) | 19.6 µM (inactive) | 46.5 µM (inactive) | 36.6 µM (inactive) | 90.8 µM (inactive) | 55.1 µM (inactive) | 35.5 µM (inactive) | 18.1 µM (inactive) | 46.1 µM (inactive) | 31.5 µM (inactive)
3 | N#CC1=C(N)N(/N=C/c2ccccc2)C(c2ccccc2)C1(C#N)C#N (stereo not given) | 16.8 µM (inactive) | 24.1 µM (inactive) | 20.2 µM (inactive) | 1.9 µM (inactive) | 6.75 | 14.2 µM (inactive) | 2.26 µM (inactive) | 18.7 µM (inactive) | 21.6 µM (inactive) | 4.89 µM (inactive) | 13.5 µM (inactive) | 2.19 µM (inactive) | 18.2 µM (inactive) | 14.6 µM (inactive) | 2.07 µM (inactive) | 4 µM (inactive) | 4.94 µM (inactive) | 17.7 µM (inactive) | 12.6 µM (inactive) | 16.5 µM (inactive)
4 | CCCCCCCCCc1cccc(N2C(N)=NC(N)=NC2(C)C)c1 | < 0.0237 µM (active) | 1.04 µM (active) | < 0.0329 µM (active) | 0.197 µM (active) | < 0.01 | 0.0277 µM (active) | < 0.01 µM (active) | < 0.01 µM (active) | 4.62 µM (inactive) | 0.0547 µM (active) | < 0.01 µM (active) | < 0.01 µM (active) | 0.0165 µM (active) | 0.0198 µM (active) | 0.104 µM (active) | < 0.01 µM (active) | 0.0112 µM (active) | < 0.01 µM (active) | < 0.01 µM (active) | 0.0339 µM (active)
5 | CCCCC(=C=C(C)CO)C1CCCN1C(=O)OC(C)(C)C (stereo not given) | 20 µM (inactive) | 13.8 µM (inactive) | 19.7 µM (inactive) | 14.3 µM (inactive) | 17.9 | 16.1 µM (inactive) | 15.1 µM (inactive) | 19 µM (inactive) | 16.8 µM (inactive) | 17.5 µM (inactive) | 13.6 µM (inactive) | 13.4 µM (inactive) | 18.8 µM (inactive) | 17.3 µM (inactive) | 15 µM (inactive) | 17.5 µM (inactive) | 13.9 µM (inactive) | 17.1 µM (inactive) | 18.5 µM (inactive) | 16.9 µM (inactive)
6 | Cc1nc2sccn2c1/C=C1/C(=O)Nc2cccc(Cl)c21 | > 100 µM (inactive) | > 100 µM (inactive) | 79.6 µM (inactive) | > 100 µM (inactive) | 47.2 | 45.7 µM (inactive) | 61.9 µM (inactive) | > 100 µM (inactive) | 34.2 µM (inactive) | > 100 µM (inactive) | > 100 µM (inactive) | 52.7 µM (inactive) | 11.6 µM (inactive) | > 100 µM (inactive) | > 100 µM (inactive) | 56.2 µM (inactive) | > 100 µM (inactive) | > 100 µM (inactive) | > 100 µM (inactive) | > 100 µM (inactive)
7 | COc1c(C)c(C/C=C(\C)CCCCO[Si](c2ccccc2)(c2ccccc2)C(C)(C)C)c(OC)c(OC)c1OC | 25.1 µM (inactive) | > 100 µM (inactive) | > 31.6 µM (inactive) | > 46.5 µM (inactive) | > 46.5 | 30.1 µM (inactive) | 43.2 µM (inactive) | 21.4 µM (inactive) | 27 µM (inactive) | > 46.5 µM (inactive) | > 46.5 µM (inactive) | 47.3 µM (inactive) | > 46.5 µM (inactive) | 27.7 µM (inactive) | > 100 µM (inactive) | > 46.5 µM (inactive) | 39.9 µM (inactive) | > 46.5 µM (inactive) | > 46.5 µM (inactive) | > 46.5 µM (inactive)
